Data as given in patent US20180263985A1, “MODULATORS OF TOLL-LIKE RECEPTORS FOR THE TREATMENT OF HIV” (Gilead Sciences, Inc., priority 2015, published 2018).

Legend:
Format in all cases: cell-based, human
CD8+ T Cells = experiment: Immune cell activation in PBMC cultures, flow cytometry: CD8+ T cells; conditions: 2 days; for CD8+ T Cells CD25 Fold / CD8+ T Cells CD28 Fold / CD8+ T Cells CD38 Fold / CD8+ T Cells CD69 Fold / CD8+ T Cells CD25 % / CD8+ T Cells CD28 % / CD8+ T Cells CD69 %: N = 6
Description: (§1) TLR8 is expressed on multiple immune cell subsets. To determine how treatment with a TLR8 modulating compound affects activation of distinct cell populations, PBMCs were purified from HIV-1 infected subjects on cART, as described in Example 121 (anonymized participant IDs 184, 185, 188, 189, 190, and 191). […] After incubation, PBMCs were harvested and stained with antibodies conjugated to specific fluorophores (BD Biosciences) to delineate immune cell subsets: CD4 T cells (CD3+CD4+CD8−), CD8 T cells (CD3+CD8+CD4−), NK cells (CD3−CD56+CD16+), monocytes (CD3−CD14+), B cells (CD3−CD19+), and peripheral dendritic cells (DCs), defined as positive for HLA-DR and negative for a panel of markers: CD3, CD14, CD16, CD19, CD20, CD56 (Lin-1 lineage panel, BD Biosciences).
(§2) Additional markers of activation, maturation, and effector function were included for cell subsets, as follows: CD4 and CD8 T cells (CD25, CD38, CD69, IFN-γ, granzyme B, perforin, TNF-α), NK cells (CD25, CD69, IFN-γ), monocytes (CD11c, CD16, CD80, CD86, CD163, TNF-α), B cells (CD40, CD69, CD80, CD86), and DC (CD11c, CD69, CD80, CD86, CD123, and CD163). Cells were stained for surface markers (CD3, CD4, CD8, CD11c, CD14, CD16, CD25, CD69, CD80, CD86, CD163), washed, treated with fixation and permeabilization buffer (eBioscience), and stained for intracellular markers (IFN-γ, granzyme B, perforin, TNF-α). Cells were evaluated by flow cytometry on a LSR Fortessa (BD Biosciences), and data was analyzed with FlowJo software (TreeStar).
(§3) Data are expressed as geometric mean percentage (%) and as geometric mean fold-activation (Fold) for each marker and for each PBMC subset obtained from 4 or 6 subjects, as indicated. Fold activation is calculated as a ratio of the % positive for each marker for each PBMC subset at the indicated concentration of the compound of Example 15 relative to % positive for DMSO treated samples. Fold activations that are 1.5 are in bold.

B Cells = experiment: Immune cell activation in PBMC cultures, flow cytometry: B cells; conditions: for B Cells CD69 Fold / B Cells CD80 Fold / B Cells CD69 % / B Cells CD80 %: 2 days, N = 4
Description: as §1, §2, §3

Monocytes = experiment: Immune cell activation in PBMC cultures, flow cytometry: monocytes
Description: as §1, §2, §3

NK Cells = experiment: Immune cell activation in PBMC cultures, flow cytometry: NK cells; conditions: for NK Cells CD25 Fold / NK Cells CD69 Fold: 2 days, N = 6
Description: as §1, §2, §3

CD4+ T Cells = experiment: Immune cell activation in PBMC cultures, flow cytometry: CD4+ T cells; conditions: 2 days, N = 6
Description: as §1, §2, §3

CCCC[C@H](CO)Nc1nc(N)nc2cccnc12 [Example 15]
CD8+ T Cells CD25 Fold (CD8+ T Cells; 10 nM vs DMSO): 0.6 fold
CD8+ T Cells CD28 Fold (CD8+ T Cells; 10 nM vs DMSO): 0.9 fold
CD8+ T Cells CD38 Fold (CD8+ T Cells; 10 nM vs DMSO): 0.9 fold
CD8+ T Cells CD69 Fold (CD8+ T Cells; 10 nM vs DMSO): 0.8 fold
CD8+ T Cells CD25 % (CD8+ T Cells; 10 nM): 0.2%
CD8+ T Cells CD28 % (CD8+ T Cells; 10 nM): 0.1%
CD8+ T Cells CD69 % (CD8+ T Cells; 10 nM): 3.7%
CD8+ T Cells CD25 Fold (CD8+ T Cells; 100 nM vs DMSO): 1.0 fold
CD8+ T Cells CD28 Fold (CD8+ T Cells; 100 nM vs DMSO): 1.1 fold
CD8+ T Cells CD38 Fold (CD8+ T Cells; 100 nM vs DMSO): 1.0 fold
CD8+ T Cells CD69 Fold (CD8+ T Cells; 100 nM vs DMSO): 0.7 fold
CD8+ T Cells CD25 % (CD8+ T Cells; 100 nM): 0.3%
CD8+ T Cells CD28 % (CD8+ T Cells; 100 nM): 0.1%
CD8+ T Cells CD69 % (CD8+ T Cells; 100 nM): 3.4%
CD8+ T Cells CD25 Fold (CD8+ T Cells; 1000 nM vs DMSO): 2.2 fold
CD8+ T Cells CD28 Fold (CD8+ T Cells; 1000 nM vs DMSO): 4.4 fold
CD8+ T Cells CD38 Fold (CD8+ T Cells; 1000 nM vs DMSO): 2.0 fold
CD8+ T Cells CD69 Fold (CD8+ T Cells; 1000 nM vs DMSO): 2.2 fold
CD8+ T Cells CD25 % (CD8+ T Cells; 1000 nM): 0.7%
CD8+ T Cells CD28 % (CD8+ T Cells; 1000 nM): 0.4%
CD8+ T Cells CD25 Fold (CD8+ T Cells; 3000 nM vs DMSO): 3.0 fold
CD8+ T Cells CD28 Fold (CD8+ T Cells; 3000 nM vs DMSO): 4.7 fold
CD8+ T Cells CD38 Fold (CD8+ T Cells; 3000 nM vs DMSO): 2.0 fold
CD8+ T Cells CD69 Fold (CD8+ T Cells; 3000 nM vs DMSO): 2.5 fold
CD8+ T Cells CD25 % (CD8+ T Cells; 3000 nM): 0.9%
CD8+ T Cells CD28 % (CD8+ T Cells; 3000 nM): 0.5%
Perforin in CD8+ T cells (CD8+ T Cells; Example 15 treatment): did not increase
B Cells CD69 Fold (B Cells; 10 nM vs DMSO): 1.2 fold
B Cells CD80 Fold (B Cells; 10 nM vs DMSO): 1.6 fold
B Cells CD69 % (B Cells; 10 nM): 10.0%
B Cells CD80 % (B Cells; 10 nM): 2.6%
B Cells CD69 Fold (B Cells; 100 nM vs DMSO): 0.5 fold
B Cells CD80 Fold (B Cells; 100 nM vs DMSO): 1.1 fold
B Cells CD69 % (B Cells; 100 nM): 3.9%
B Cells CD80 % (B Cells; 100 nM): 1.7%
B Cells CD69 Fold (B Cells; 1000 nM vs DMSO): 1.1 fold
B Cells CD80 Fold (B Cells; 1000 nM vs DMSO): 1.4 fold
B Cells CD69 % (B Cells; 1000 nM): 9.1%
B Cells CD80 % (B Cells; 1000 nM): 2.2%
B Cells CD69 Fold (B Cells; 3000 nM vs DMSO): 1.7 fold
B Cells CD80 Fold (B Cells; 3000 nM vs DMSO): 1.9 fold
B Cells CD80 % (B Cells; 3000 nM): 3.0%
Concentration of maximal activation of B cells (B Cells; increased expression of CD69 and CD80): 3000 nM
Monocytes CD11c Fold (Monocytes; 10 nM vs DMSO, 2 days, N = 6): 0.6 fold
Monocytes CD69 Fold (Monocytes; 10 nM vs DMSO, 2 days, N = 6): 0.3 fold
Monocytes CD80 Fold (Monocytes; 10 nM vs DMSO, 2 days, N = 6): 1.1 fold
Monocytes CD11c % (Monocytes; 10 nM, 2 days, N = 6): 0.4%
Monocytes CD69 % (Monocytes; 10 nM, 2 days, N = 6): 0.8%
Monocytes CD80 % (Monocytes; 10 nM, 2 days, N = 6): 33.0%
Monocytes CD11c Fold (Monocytes; 100 nM vs DMSO, 2 days, N = 6): 5.2 fold
Monocytes CD69 Fold (Monocytes; 100 nM vs DMSO, 2 days, N = 6): 0.6 fold
Monocytes CD80 Fold (Monocytes; 100 nM vs DMSO, 2 days, N = 6): 1.6 fold
Monocytes CD11c % (Monocytes; 100 nM, 2 days, N = 6): 3.6%
Monocytes CD69 % (Monocytes; 100 nM, 2 days, N = 6): 1.8%
Monocytes CD11c Fold (Monocytes; 1000 nM vs DMSO, 2 days, N = 6): 1.6 fold
Monocytes CD69 Fold (Monocytes; 1000 nM vs DMSO, 2 days, N = 6): 2.0 fold
Monocytes CD80 Fold (Monocytes; 1000 nM vs DMSO, 2 days, N = 6): 3.0 fold
Monocytes CD11c % (Monocytes; 1000 nM, 2 days, N = 6): 1.2%
Monocytes CD69 % (Monocytes; 1000 nM, 2 days, N = 6): 6.2%
Monocytes CD11c Fold (Monocytes; 3000 nM vs DMSO, 2 days, N = 6): 2.1 fold
Monocytes CD69 Fold (Monocytes; 3000 nM vs DMSO, 2 days, N = 6): 2.6 fold
Monocytes CD80 Fold (Monocytes; 3000 nM vs DMSO, 2 days, N = 6): 2.7 fold
Monocytes CD11c % (Monocytes; 3000 nM, 2 days, N = 6): 1.5%
Monocytes CD69 % (Monocytes; 3000 nM, 2 days, N = 6): 7.9%
Concentration of maximal activation of monocytes (Monocytes; increased expression of CD11c): 100 nM
Concentration of maximal activation of monocytes (Monocytes; increased expression of CD69): 3000 nM
Concentration of maximal activation of monocytes (Monocytes; increased expression of CD80): 1000 nM
NK Cells CD25 Fold (NK Cells; 10 nM vs DMSO): 0.4 fold
NK Cells CD69 Fold (NK Cells; 10 nM vs DMSO): 0.4 fold
NK Cells CD25 Fold (NK Cells; 100 nM vs DMSO): 1.6 fold
NK Cells CD69 Fold (NK Cells; 100 nM vs DMSO): 0.6 fold
NK Cells CD69 Fold (NK Cells; 1000 nM vs DMSO): 12.4 fold
NK Cells CD25 Fold (NK Cells; 3000 nM vs DMSO): 9.6 fold
NK Cells CD69 Fold (NK Cells; 3000 nM vs DMSO): 11.8 fold
Concentration of maximal activation of NK cells (NK Cells; increased expression of CD25 and CD69): 1000 nM
CD4+ T Cells CD25 Fold (CD4+ T Cells; 10 nM vs DMSO): 0.6 fold
CD4+ T Cells CD69 Fold (CD4+ T Cells; 10 nM vs DMSO): 0.7 fold
CD4+ T Cells Perforin Fold (CD4+ T Cells; 10 nM vs DMSO): 1.5 fold
CD4+ T Cells CD25 % (CD4+ T Cells; 10 nM): 1.5%
CD4+ T Cells CD69 % (CD4+ T Cells; 10 nM): 5.7%
CD4+ T Cells CD25 Fold (CD4+ T Cells; 100 nM vs DMSO): 1.7 fold
CD4+ T Cells CD69 Fold (CD4+ T Cells; 100 nM vs DMSO): 1.0 fold
CD4+ T Cells Perforin Fold (CD4+ T Cells; 100 nM vs DMSO): 1.3 fold
CD4+ T Cells CD25 % (CD4+ T Cells; 100 nM): 3.9%
CD4+ T Cells CD69 % (CD4+ T Cells; 100 nM): 7.7%
CD4+ T Cells CD25 Fold (CD4+ T Cells; 1000 nM vs DMSO): 1.8 fold
CD4+ T Cells CD69 Fold (CD4+ T Cells; 1000 nM vs DMSO): 1.5 fold
CD4+ T Cells Perforin Fold (CD4+ T Cells; 1000 nM vs DMSO): 1.8 fold
CD4+ T Cells CD25 % (CD4+ T Cells; 1000 nM): 4.2%
CD4+ T Cells CD25 Fold (CD4+ T Cells; 3000 nM vs DMSO): 1.3 fold
CD4+ T Cells CD69 Fold (CD4+ T Cells; 3000 nM vs DMSO): 1.7 fold
CD4+ T Cells Perforin Fold (CD4+ T Cells; 3000 nM vs DMSO): 2.1 fold
CD4+ T Cells CD25 % (CD4+ T Cells; 3000 nM): 3.0%
CD4+ T Cells Perforin % (CD4+ T Cells; 3000 nM): 17.0%
